Literature values, collected in US20090169606A1, “Low Flexural Strength Transdermal Tobacco Alkaloid Patch” (Fertin Pharma, priority 2005, published 2009).

Conditions: pure nicotine placed on the skin of an ordinary human being

SMILES: CN1CCCC1c1cccnc1 (stereo not shown) [nicotine]
- lethal dose: 50 mg
